# Measured values taken from PubChem BioAssay AID1963438 (Molecular Pharmacology Branch, DTP, NCI, 2024).
# pIC50: −log10 of the molar value. Values joined by “and” are separate entries in the source; they are usually repeats but may differ in a detail not shown here. Equal values may be shown once.
# Tested on: NCI-H510 multicellular tumor spheroid growth, % test/control
# Test: Anticancer human tumor NCI-H510 cell line growth inhibition [Asc];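 further: spheroids exposed to agents for 7 days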;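 on viability, T/C: 100% = DMSO vehicle control wells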
# Conditions: for viability, T/C: stronger effect = lower value
# Method: Multicellular complex tumor spheroid response to apoptosis pathway targeting inhibitors Alrizomadlin, Pelcitoclax, and Dasminapant in combination with a variety of drugs and investigational agents in selected tumor cell lines
# The MDM2 inhibitor alrizomadlin, the Bcl-2/Bcl-xL inhibitor pelcitoclax, and the IAPs inhibitor dasminapant were evaluated both individually and in combination with standard of care and investigational anticancer small molecules within a complex spheroid model of solid tumors. . Complex spheroids include a stromal component modeled by human endothelial cells (HUVEC) and fibroblasts modeled by human mesenchymal stem cells (MSCs). The concentration ranges selected for each drug and investigational agent were based upon clinically achievable concentrations if the clinical Cmax of the agent was known.
# Compounds. The drugs and investigational agents: alrizomadlin (APG-115; NSC831270), pelcitoclax (APG-1252; NSC835773), dasminapant (APG-1387;NSC834197), TAK-243 (NSC785004), copanlisib (NSC809693), olaparib (NSC753686), talazoparib (NSC767125), cobimetinib (NSC 768068), eltanexor (KPT-8602, NSC 794443), abemaciclib (NSC 768073), sotorasib (NSC818433), adagrasib (NSC 831453), MRTX-1133 (NSC 836407), Iadademestat (ORY1001, NSC 806812), and RMC-4630 (NSC839698), were obtained from the NCI Developmental Therapeutics Program Chemical Repository. The FDA-approved anticancer drug set is available from the Developmental Therapeutics Program at https://dtp.cancer.gov/organization/dscb/obtaining/available plates.htm. […] The stock solutions were prepared in dimethyl sulfoxide (DMSO, Sigma-Aldrich, St. Louis, MO, cat. D2650) at 800-fold the tested concentration and stored at -70 degrees C prior to their use. All drugs and investigational agents were tested over a range starting from a high concentration at or near the clinical Cmax and decreasing in half-log increments. If the clinical Cmax for an agent had not been determined, the highest concentration tested was 10 microM.
# The patient-derived cancer (PDC) cell lines include five colon adenocarcinomas: 186277-243-T-J2-PDC, 616215-338-R-J1-PDC, 439559-082-T-J2-PDC, 463943-066-T-J2-PDC, and 519858-162-T-J1-PDC; three pancreatic carcinomas: 323965-272-R-J2-PDC, 521955-158-R6-J3-PDC, and 521955-158-R2-J5-PDC; two uterine sarcomas: 327498-152-R-J2-PDC and 993429-296-R-J1-PDC; two rhabdomyosarcomas: 755483-174-R-J1-PDC and 772245-204-R-J1-PDC; two soft tissue sarcomas: 126254-015-R-J1-PDC and 494315-158-R-J1-PDC; two malignant fibrous histiocytomas: 317291-083-R-J1-PDC and 596521-263-R-J1-PDC; two breast carcinomas: 171881-019-R-J1-PDC and 885512-296-R-J2-PDC; and one ovarian carcinoma: 6556581-035-R-J-PDC were obtained from the NCI PDMR, (https://pdmr.cancer.gov). The established cell lines HSSY-2 synovial sarcoma (RRID:CVCL 8719), SYO-1 synovial sarcoma (RRID:CVCL_7146), MPNST malignant peripheral neural sheath tumor were obtained from the Sloan Kettering Institute. The following established cell lines were purchased from the American Type Culture Collection (ATCC, Manassas, VA), Sor the received from the NCI repository:, PANC-1 pancreatic carcinoma (CRL-1469, RRID:CVCL_0480), OVCAR-5 ovarian carcinoma (RRID:CVCL_1628), OVCAR-8 ovarian carcinoma (RRID:CVCL_1629), , MCF-7 breast carcinoma (CRL-12584, RRID:CVCL_0031), MDA-MB-231 breast carcinoma (CRL-12532, RRID:CVCL_0062), NCI-H1876 small cell lung carcinoma (CRL-5902, RRID:CVCL_1503), NCI-H510A small cell lung carcinoma (HTB-184, RRID:CVCL_1565), NCI-H1417 (CRL-5869, RRID:CVCL_1469), and NCI-H196 small cell lung carcinoma (CRL-5823, RRID:CVCL_1509). Dr. Peter Houghton (Greehey Children's Cancer Research Institute, University of Texas Health Science Center, San Antonio, TX) provided Rh-18 rhabdomyosarcoma (RRID:CVCL_1659). Pooled donor human umbilical vein endothelial cells (HUVEC, Lonza, cat. CC-2519) and human mesenchymal stem cells (hMSC, Lonza, cat. PT-2501) were purchased from Lonza (Walkersville, MD).
# Cell Culture. […]
# [1] = curve of first compound, second compound 0.1 µM
# [2] = curve of first compound, second compound 0.316 µM
# [3] = curve of first compound, second compound 1 µM
# [4] = curve of first compound, second compound 3.16 µM
# [5] = curve of first compound, second compound 10 µM
# [6] = second compound 0.1 µM, first compound 0.00316 µM
# [7] = second compound 0.1 µM, first compound 0.01 µM
# [8] = second compound 0.1 µM, first compound 0.0316 µM
# [9] = second compound 0.1 µM, first compound 0.1 µM
# [10] = second compound 0.1 µM, first compound 0.316 µM
# [11] = second compound 0.1 µM, first compound 1 µM
# [12] = second compound 0.316 µM, first compound 0.00316 µM
# [13] = second compound 0.316 µM, first compound 0.01 µM
# [14] = second compound 0.316 µM, first compound 0.0316 µM
# [15] = second compound 0.316 µM, first compound 0.1 µM
# [16] = second compound 0.316 µM, first compound 0.316 µM
# [17] = second compound 0.316 µM, first compound 1 µM
# [18] = second compound 1 µM, first compound 0.00316 µM
# [19] = second compound 1 µM, first compound 0.01 µM
# [20] = second compound 1 µM, first compound 0.0316 µM
# [21] = second compound 1 µM, first compound 0.1 µM
# [22] = second compound 1 µM, first compound 0.316 µM
# [23] = second compound 1 µM, first compound 1 µM
# [24] = second compound 3.16 µM, first compound 0.00316 µM
# [25] = second compound 3.16 µM, first compound 0.01 µM
# [26] = second compound 3.16 µM, first compound 0.0316 µM
# [27] = second compound 3.16 µM, first compound 0.1 µM
# [28] = second compound 3.16 µM, first compound 0.316 µM
# [29] = second compound 3.16 µM, first compound 1 µM
# [30] = second compound 10 µM, first compound 0.00316 µM
# [31] = second compound 10 µM, first compound 0.01 µM
# [32] = second compound 10 µM, first compound 0.0316 µM
# [33] = second compound 10 µM, first compound 0.1 µM
# [34] = second compound 10 µM, first compound 0.316 µM
# [35] = second compound 10 µM, first compound 1 µM
pIC50 [1],pIC50 [2],pIC50 [3],Compound,"viability, T/C [6] [%]","viability, T/C [7] [%]","viability, T/C [8] [%]","viability, T/C [9] [%]","viability, T/C [10] [%]","viability, T/C [11] [%]","viability, T/C [12] [%]","viability, T/C [13] [%]","viability, T/C [14] [%]","viability, T/C [15] [%]","viability, T/C [16] [%]","viability, T/C [17] [%]","viability, T/C [18] [%]","viability, T/C [19] [%]","viability, T/C [20] [%]","viability, T/C [21] [%]","viability, T/C [22] [%]",also measured
< 6.00,< 6.00,< 6.00,CNC(C)C(=O)NC1CN(S(=O)(=O)c2cccc(S(=O)(=O)N3CCC4CCC(C(=O)NC(c5ccccc5)c5ccccc5)N4C(=O)C(NC(=O)C(C)NC)C3)c2)CCC2CCC(C(=O)NC(c3ccccc3)c3ccccc3)N2C1=O (configuration not stated) + Cc1c(S(C)(=O)=O)c(-c2cc(F)cc(N3CCN(c4ccc(NS(=O)(=O)c5ccc(NC(CCN6CCC(C(=O)OCCCP(=O)(O)O)CC6)CSc6ccccc6)c(S(=O)(=O)C(F)(F)F)c5)cc4)CC3)c2)c(-c2ccc(Cl)cc2)n1C(C)C,114,122,111,120,99.8,128,93.6,117,107,102,104,112,115,97.5,107,103,76.9,"pIC50 [4]: < 6.00; pIC50 [5]: < 6.00; viability, T/C [23]: 91%; viability, T/C [24]: 102%; viability, T/C [25]: 112%; viability, T/C [26]: 109%; viability, T/C [27]: 96.6%; viability, T/C [28]: 85.7%; viability, T/C [29]: 104%; viability, T/C [30]: 110%; viability, T/C [31]: 104%; viability, T/C [32]: 70.4%; viability, T/C [33]: 87.7%; viability, T/C [34]: 111%; viability, T/C [35]: 98.6%"
< 6.00,< 6.00,6.19,CCN1CCN(Cc2ccc(Nc3ncc(F)c(-c4cc(F)c5nc(C)n(C(C)C)c5c4)n3)nc2)CC1 + Cc1c(S(C)(=O)=O)c(-c2cc(F)cc(N3CCN(c4ccc(NS(=O)(=O)c5ccc(NC(CCN6CCC(C(=O)OCCCP(=O)(O)O)CC6)CSc6ccccc6)c(S(=O)(=O)C(F)(F)F)c5)cc4)CC3)c2)c(-c2ccc(Cl)cc2)n1C(C)C,112,91.2,98,75.1,86.1,103,104,94.8,102,108,88.3,87.8,98.4,90.7,76.2,74.3,74.9,"pIC50 [4]: 6.19; pIC50 [5]: 6.39; viability, T/C [23]: 38.2%; viability, T/C [24]: 69.6%; viability, T/C [25]: 93%; viability, T/C [26]: 107%; viability, T/C [27]: 112%; viability, T/C [28]: 61.2%; viability, T/C [29]: 42.9%; viability, T/C [30]: 104%; viability, T/C [31]: 102%; viability, T/C [32]: 78.2%; viability, T/C [33]: 90.4%; viability, T/C [34]: 56.9%; viability, T/C [35]: 18.8%"
< 6.00,< 6.00,< 6.00,O=C(c1ccc(F)c(F)c1Nc1ccc(I)cc1F)N1CC(O)([C@@H]2CCCCN2)C1 + CNC(C)C(=O)NC1CN(S(=O)(=O)c2cccc(S(=O)(=O)N3CCC4CCC(C(=O)NC(c5ccccc5)c5ccccc5)N4C(=O)C(NC(=O)C(C)NC)C3)c2)CCC2CCC(C(=O)NC(c3ccccc3)c3ccccc3)N2C1=O,112,95.2,104,97.2,92.1,101,102,101,104,105,100,108,109,111,101,90.2,99.7,"pIC50 (curve of first compound, second compound 0.01 µM): < 6.00; pIC50 (curve of first compound, second compound 0.0316 µM): < 6.00; viability, T/C (second compound 0.01 µM, first compound 0.00316 µM): 98.5%; viability, T/C (second compound 0.01 µM, first compound 0.01 µM): 113%; viability, T/C (second compound 0.01 µM, first compound 0.0316 µM): 102%; viability, T/C (second compound 0.01 µM, first compound 0.1 µM): 101%; viability, T/C (second compound 0.01 µM, first compound 0.316 µM): 102%; viability, T/C (second compound 0.01 µM, first compound 1 µM): 79.6%; viability, T/C (second compound 0.0316 µM, first compound 0.00316 µM): 94.7%; viability, T/C (second compound 0.0316 µM, first compound 0.01 µM): 103%; viability, T/C (second compound 0.0316 µM, first compound 0.0316 µM): 88%; viability, T/C (second compound 0.0316 µM, first compound 0.1 µM): 102%; viability, T/C (second compound 0.0316 µM, first compound 0.316 µM): 100%; viability, T/C (second compound 0.0316 µM, first compound 1 µM): 90.3%; viability, T/C [23]: 84.7%"
,,,NC1CCC(NC2CC2c2ccccc2)CC1 (configuration not stated),,,,,,,,,,,,,,,,,,"viability, T/C (compound 0.000316 µM): 67.7% and 77.1% and 95.6%; viability, T/C (compound 0.001 µM): 69.7% and 75.9% and 98.6%; viability, T/C (compound 0.00316 µM): 79.1% and 83% and 96.4%; viability, T/C (compound 0.01 µM): 69.3% and 84.8% and 101%; viability, T/C (compound 0.0316 µM): 89.1% and 83.1% and 91.1%; viability, T/C (compound 0.1 µM): 65% and 77.7% and 93%; pIC50 (curve of compound): < 7.00"
